Test results as given in patent US20100028402A1, “NANOPARTICLE-BASED ANTICOAGULANT” (priority 2006, published 2010).
≈ marks a conversion by molar mass, not a printed value.

Key:
[1] = tested on: murine bone marrow myeloid precursors; assay: CFU-GM assay (myelosuppression); conditions: FIG. 3
Protocol: CFU-GM Assay. The granulocyte-macrophage colony-forming units (CFU-GM) assay employed murine bone marrow (BM). […] The BM cells were isolated from 8-12 week old mice and cultured in methylcellulose-based medium supplemented with cytokines (mSCF, mIL-3 and hIL-6) either untreated (baseline) or treated with nanoparticles (test). These cytokines promoted formation of granulocyte and macrophage (CFU-GM) colonies. After twelve days of incubation at 37° C. in the presence of 5% CO2 and 95% humidity number of colonies was quantified in baseline and test samples. A percent of CFU inhibition was then calculated for each test sample. The basic protocol for BM isolation and culture was adopted from technical manual # 28405 developed by StemCell Technologies Inc. The assay required 450 μL of a test-nanoparticles, MethoCult medium (StemCell Technologies Inc cat. # 03534), Fetal Bovine Serum prescreened for hematopoietic stem cells (StemCell Technologies Inc. cat. # 06200), Iscove's MDM with 2% FBS (StemCell Technologies Inc cat. # 07700), sterile distilled water, blunt-end 16 gauge needles (StemCell Technologies Inc cat. # 03534 2.6), cisplatin (positive control; Sigma cat #P4394), Sterile Ca^2+/Mg^2+-free DPBS (negative control; Sigma D8537). […]
The CFU-GM assay required 450 μL of nanoparticles, e.g., three 150 μL samples, each of which is analyzed in duplicate. […]

[2] = tested on: platelets (human platelet-rich plasma); assay: Platelet aggregation assay, with and without collagen; format: cell-based
Protocol: Platelet Aggregation Assay. […] The concentration of the nanoparticle was determined by considering the following parameters: i) the solubility of the nanoparticle in a biocompatible buffer; ii) maintaining the pH within a physiological range (pH 7±0.5); iii) availability of nanoparticle; and iv) stability of the nanoparticle. […] The assay required 150 μL of test material.
Platelet-rich plasma (PRP) was obtained from fresh pooled human whole blood by spinning freshly drawn blood for 8 minutes at 200 g. PRP was then pooled from at least 3 different donors. It is to be noted that during phlebotomy, the first 2 mLs of blood was discarded. Further, PRP was prepared as soon as possible from the time of obtaining the blood sample and no longer than 1 hour after blood collection. PRP was kept at room temperature and was used within 4 hours of its isolation. Exposure of either the blood or PRP to cold temperatures (<20° C.) was avoided because such temperatures induce platelet aggregations.
Three test tubes for the test sample, two tubes for the positive control and two tubes for the negative control were prepared. Twenty-five microliters of the test sample, positive control or negative control were added to the respective tubes. These samples provided data on the ability of the test nanoparticle to induced platelet aggregation. A second set of tubes were prepared for test-particles plus collagen. These set of tubes provided data on the ability of test-particles to interfere with platelet aggregation caused by collagen. For this set of studies, 25 μL of the positive control and 25 μL of the test nanoparticle was added to each “test-particles plus collagen” tube. Further, 50 μL of the negative control was added to each negative control tube and 25 μL of the positive control and 25 μL of RPMI was added to each positive control tube. In addition, one control tube with 100 μL of phosphate buffer saline (PBS) or RPMI and 25 μL of the nanoparticles was prepared to determine any potential particle interference with instrument counting procedure.
PRP was added to the appropriate tubes, samples were briefly vortexed and then incubated with control or test sample for 15 minutes at a nominal temperature of 37° C. After the incubation period, 10 mL of Isoton II diluent was added into blood cell counter vials. Two vials were prepared for each sample replicate. Twenty microliters of PRP treated with positive control, negative control or test-nanoparticle was then added to the each vial. Vials were covered and gently inverted to mix the diluted samples. PRP was analyzed by a Z2 Particle Count and Size Analyzer (Beckman Coulter) to determine the number of active platelets. Percent Coefficient of Variation (% CV) was equal to the standard deviation divided by the mean multiplied by 100. Platelet count=(5×RC)/100=# platelets×10^9/L. Further, percent platelet aggregation (% aggregation)=Control Platelet Count−Sample Platelet Count/Control Platelet Count×100). The percent coefficient of variation for each control and test sample was within 25%. […] Percent platelet aggregation above 20% was considered to be positive (for example, test-particle induces platelet aggregation).

[3] = tested on: red blood cells (pooled normal human whole blood); assay: Hemolysis assay; format: cell-based
Text: Hemolysis Assay. This assay employs a protocol for quantitative colorimetric determination of hemoglobin in whole blood (total blood hemoglobin—TBH) and hemoglobin released into plasma (plasma free hemoglobin—PFH) when blood was exposed to nanoparticles. In brief, hemoglobin and its derivatives, except sulfhemoglobin, were oxidized to methemoglobin by ferricyanide in the presence of alkali. Cyanmethemoglobin (CMH) was formed from the methemoglobin by its reaction with cyanide (Drabkin's solution) and then detected by spectrophotometer set at 540 nm. The hemoglobin standard was used to build a standard curve covering the concentration range from 0.025 to 0.80 mg/mL and to prepare quality control samples at low (0.0625 mg/mL), mid (0.125 mg/mL) and high (0.625 mg/mL) concentrations to monitor assay performance. Required sample volume was 300 μL, e.g., 100 μL per test-replicate. The results expressed as percent of hemolysis were used to evaluate the acute in vitro hemolytic properties of nanoparticles.
The following reagents were used in the assay: cyanmethemoglobin (CMH) reagent, (StanBio, cat. # 0321-380); hemoglobin standard (StanBio, cat. # 0325-006); Ca/Mg free DPBS (Sigma, catalogue no: D8537); pooled normal human whole blood anti-coagulated with Li-heparin; poly-L-Lysine hydrobromide (MW 150 000-300 000, Sigma, cat #P1399); polyethylene glycol (av. MW 8 000, Sigma cat # P1458); and distilled water. It is contemplated that equivalent reagents from other vendors can be used.
The positive control was prepared by dissolving poly-L-Lysine powder to a final concentration of 1% (10 mg/mL) in sterile distilled water. […] Alternatively, 1% TritonX-100 in water was used as a positive control. […]
Whole blood was collected in tubes containing Li-heparin as anti coagulant from at least three donors. […] The plate was then read by use of a plate reader at an absorbance of 540 nm to determine hemoglobin concentration. […] If calculated PFH concentration was below 1 mg/mL pooled whole blood was diluted with Ca^2+/Mg^2+ free DPBS to adjust total hemoglobin concentration to 10±2 mg/mL. […]

[4] = MTT and LDH cytotoxicity assays, kidney cells; format: cell-based, porcine; conditions: pig, LLC-PK1 porcine proximal tubule epithelial cells, treated 6, 24 or 48 hours, 1.0 to 0.004 mg/mL, read-out: LC50 (the source's name)
Protocol: (§1) The cytotoxicity of AF1, AF3, C3, DF1 and NCL22 on porcine proximal tubule epithelial cells (LLC-PK1) was determined by a method that includes a 3-(4,5-Dimethyl-2-thiazolyl)-2,5-diphenyl-2H-tetrazolium bromide (MTT) reduction and lactate dehydrogenase (LDH) release assays. MTT that is a yellow water-soluble tetrazolium dye that is reduced by live cells to a water-insoluble purple formazan. The amount of formazan can be determined by solubilizing the formazan in DMSO and measuring it spectrophotometrically. Comparisons between the spectra of treated and untreated cells can give a relative estimation of cytotoxicity. (See, Alley et al. Cancer Res. 48: 589-60, 1988 which is hereby incorporated by reference in its entirety). The LDH assay is based upon LDH (a cytoplasmic enzyme that is released into the […] upon cell lysis) oxidizing lactate to pyruvate, pyruvate reacting with a tetrazolium salt INT to form formazan, and the water-soluble formazan dye being detected spectrophotometrically. Thus, the LDH assay is a measure of membrane integrity. […]
(§2) Briefly, for assays employing porcine kidney epithelial cells, such cells were plated at […] in a 96 well plate. […] Cytotoxicity was then determined by MTT and LDH assays.

[5] = tested on: porcine proximal tubule epithelial cells (LLC-PK1); assay: MTT and LDH cytotoxicity assays, kidney cells; format: cell-based; conditions: 1.0 to 0.004 mg/mL
Protocol: as §1, §2

Nanoparticle dimension = format: physicochemical

N.N.[Cl][Pt][Cl] [cisplatin]
myelosuppressive effect ([1]; positive control, 50 μM): myelosuppression caused by cisplatin treatment

collagen
platelet aggregation induced ([2]; collagen 20 μg/mL, FIG. 4): greater than 60% | platelet aggregation induced ([2]; collagen 25 μg/mL, FIG. 5): greater than 80%

Triton X-100
hemolysis by positive control [3]: 90±5% | hemolysis of the red blood cells [3]: greater than 80%

O=C(O)C1(C(=O)O)C2c3ccc4c5c3-c3c6c7c8c9c3C53C(C(=O)O)(C(=O)O)C35C(=C4)Cc3cc4c(c-9c35)C83C(CC4)(CC7CC621)C3(C(=O)O)C(=O)O (stereo not shown) [C3, C60(>C(COOH)2)3]
CC50 [4]: 207 µg/mL (≈ 293 µM) | toxicity to kidney cells [5]: minimally toxic | dimension (Nanoparticle dimension): 1.57 nm | percent of hemolysis ([3]; human, 3 h): less than 2% | protection of bone marrow cells from myelosuppression caused by cisplatin ([1]; with cisplatin (50 μM)): none of the tested substituted fullerenes were able to protect the bone marrow cells | collagen-induced platelet aggregation in presence of compound ([2]; compound 200 μg/mL, collagen 20 μg/mL (collagen alone greater than 60%), FIG. 4): approximately 15%

CC(=O)Oc1ccccc1C(=O)O [aspirin]
effect on collagen-induced platelet aggregation ([2]; 167 μg/mL, collagen 25 μg/mL, FIG. 5): significant reduction in collagen-induced platelet aggregation | dose dependence of inhibition of collagen-induced platelet aggregation ([2]; 167, 33.4 and 16.7 μg/mL, collagen 25 μg/mL, FIG. 5): dose dependent
